Data: US10106540B2, “HDAC6 inhibitors and their uses” (Universität Regensburg, priority 2014, dated 2018)
pIC50: −log10 of the molar value. Blank lines part the entries; values can stand above or below the molecule they belong to.

Tests used:
[1] = test system: HEL leukemic cells; test: Western blot analysis in HEL leukemic cells (JAK2 V617F); assay type: cell-based, human; details: for concentration with about the same potency in hyperacetylation of tubulin-α: 24 h, Western blot
Experimental: Human leukemia cell line HEL with JAK2 V617F mutation (DSMZ Accession No: ACC-11).
(§1) The assay is carried out as described in Buchwald et al. 2010 and Buchwald et al. 2013. Briefly, cells were collected and lysed in NET-N buffer (150 mM NaCl, 1 mM EDTA, 50 mM Tris-HCl (pH 7.8), 0.5% Nonidet P-40 (NP-40), 1 mM phenylmethylsulfonyl fluoride, 0.5 mg/ml leupeptin and 0.5 mg/ml pepstatin) followed by mild sonification on ice. Protein lysate ([…]) was boiled in Laemmli buffer and separated on SDS-polyacrylamide gel electrophoresis for western blotting with specific antibodies. All lysates were assessed by Bradford assay for protein concentrations.

[2] = test system: HCT-116 cells; test: Western blot analysis in HCT-116 colon cancer cells; assay type: cell-based, human; details: HCT-116 cells, 24 h
Experimental: FIG. 5. Various cancer cells were treated for 24 h as shown and tested by Western blot analysis. […] Human colon cancer cell lines RKO (ATCC Accession No: CRL-2577) and HCT-116 (DSMZ Accession No: ACC-581). Western Blot Analysis a […] Protein lysate ([…]) was boiled in Laemmli buffer and separated on SDS-polyacrylamide gel electrophoresis for western blotting with specific antibodies. All lysates were assessed by Bradford assay for protein concentrations.

[3] = test system: PRXF PC-3M; test: In vitro activity against solid tumor cell lines (FACS analysis method a); assay type: cell-based; details: Homo sapiens, Prostate
Experimental: (§2) Human prostate cancer cell lines PRXF DU-145, PRXF LNCaP, PRXF PC-3M (Oncotest GmbH, Freiburg, Germany)
(§3) The assay is carried out as described in Pietschmann et al., 2012 and Brandl et al. 2012. Briefly, 10^5 cells were fixed in 1 ml 70% EtOH with 0.05% Tween-20 overnight at 4° C. The following day, cells were washed with 3 ml 38 mM sodium citrate, pH 7.4, and incubated for 20 min at 37° C. in 0.5 ml 38 mM sodium citrate, pH 7.4, supplemented with 50 μg/ml propidium iodide and 10 μg/ml RNase-A. DNA contents of the cells were measured by fluorescence-activated cell sorter (FACS). This method allows detection of the apoptotic subG1-fraction, which has a DNA content below 2n due to apoptotic cleavage of DNA. Equally, the cell cycle profile can be assessed with this method.
(§4) The novel HDAC6 inhibitors were tested in a panel of tumor cell lines for cytostatic/toxic activities (see Table 2).

[4] = test system: PRXF LNCaP; test: as above; assay type: cell-based; details: Homo sapiens, Prostate
Experimental: as §2, §3, §4

[5] = test system: PRXF DU-145; test: as above; assay type: cell-based; details: Homo sapiens, Prostate
Experimental: as §2, §3, §4

[6] = test system: UXF 1138; test: as above; assay type: cell-based; details: Homo sapiens, Uterus
Experimental: Human uterus cancer cell line UXF 1138 (Oncotest GmbH, Freiburg, Germany)
as §3, §4

[7] = test system: RKO cells; test: Western blot analysis in RKO colorectal cancer cells; assay type: cell-based, human
Experimental: FIG. 5. Various cancer cells were treated for 24 h as shown and tested by Western blot analysis.
(D) Inhibition of HDAC6 protects it from degradation by the addition of a pro-apoptotic agent (staurosporine, ST).
The total amount of vinculin serves as a loading control; Proof of tubulin acetylation serves as proof of the treatment accuracy. The loss of the caspase-3 corresponds to the induction of apoptosis (programmed cell death).
Human colon cancer cell lines RKO (ATCC Accession No: CRL-2577) and HCT-116 (DSMZ Accession No: ACC-581).
as §1

[8] = test system: 42 solid tumor cell lines; test: In vitro activity against solid tumor cell lines, mean of all lines; assay type: cell-based; details: average IC50 value from all 42 measurements
[9] = test system: BV-173 cells; test: Flow cytometric analysis of BV-173 cells, combination with imatinib; assay type: cell-based, human; details: BV-173, 1 μM MARB1 or 2 μM MARB2 combined with 0.2 or 0.5 μM imatinib, 48 h
Experimental: (§5) Flow cytometric analysis of the induction of (A) apoptotic DNA fragmentation and (B) Cell cycle analysis of BV 173 cells. The cells were kept as control cells (Ctl), treated with 1 μM or 2 μM MARB1 MARB2 and 0.2 or 0.5 μM imatinib for 48 h. The data was received by two independent experiments. The individual compounds show only slight effects in the used concentrations; whereas their combination can effectively kill leukemic cells. (C) Western blot analysis on data from the BCR-ABL, acetylated tubulin and α-sliced PARP1; the total amount of tubulin-α serves as a loading control. BV-173 cells were treated for 24 h with 1 μM, or 2 μM MARB1 or MARB2.
(§6) Human leukemia cell lines BV 173 and K562 with BCR-ABL mutation (Leibniz Institute DSMZ—German Collection of Microorganisms and Cell Cultures, DSMZ Accession Nos: ACC-20 and ACC-10).
as §3, with “This method allows detection of the apoptotic subG1-fraction, which has a DNA content below 2n due to apoptotic cleavage of DNA.” left out

[10] = test system: BV-173 cells; test: Western blot analysis in BV-173 cells; assay type: cell-based, human; details: for acetylation of histone H3: BV-173, 1 μM MARB1, 2 μM MARB2 or 2 mM VPA
Experimental: BV-173 cells (BCR-ABL positive leukemic cells) were used as control cells left (Ctl) or with 1 μM MARB1, 2 μM MARB2 or 2 mM VPA treated for 24 h. These concentrations were chosen to achieve equipotent effects on cells which was in preliminary tests (data not shown). Shown are acetylated tubulin-α, α-tubulin, acetylated histone H3, WT1, survivin and β-actin. The total amount of α-tubulin and β-actin were used as loading control. Mr, relative molecular weight in kilodaltons. The degradation of WT1 in patients treated with VPA cells bases on a loss of WT1 mRNA and the increased degradation of WT1 protein by induction of the E2 ubiquitin conjugase UbcH8.
as §5, §6, §1

[11] = test system: MAXF 401; test: In vitro activity against solid tumor cell lines (FACS analysis method a); assay type: cell-based; details: Homo sapiens, MAXF401, Breast
Experimental: (§7) Human breast cancer cell lines MAXF 401 and MAXF MCF-7 (Oncotest GmbH, Freiburg, Germany)
as §3, §4

[12] = test system: MAXF MCF-7; test: as above; assay type: cell-based; details: Homo sapiens, MCF7, Breast
Experimental: as §7, §3, §4

[13] = BV-173, 1 μM MARB1, 2 μM MARB2, 24 h

Compound: Cc1[nH]c2ccccc2c1CCNCc1ccc(/C=C/C(=O)NO)cc1 [LBH589, reference compound]
- acetylation of tubulin-α ([1]; compared to other inhibitors): decreased acetylation of tubulin-α
- tubulin acetylation and degradation [2]: degradation of tubulin

- pIC50 [3]: 4.68
- pIC50 [4]: 5.32
- pIC50 [5]: 4.99
- pIC50 [6]: 5.26
- pIC50 [8]: 4.79
- pIC50 [11]: 4.86
- pIC50 [12]: 5.11
Compound: CN1CC(=O)N2Cc3c(c4ccccc4n3Cc3ccc(C(=O)NO)cc3)C(C2)C1=O (stereo not drawn) [MARB2, N-Hydroxy-4-((5-methyl-3,6-dioxo-4,5,6,7-tetrahydro-1H-2,7-methano[1,4]diazonino[6,7-b]indol-12(3H)-yl)methyl)benzamide]
- concentration with about the same potency in hyperacetylation of tubulin-α [1]: ~2 µM
- hyperacetylation of tubulin ([7]; 0.5 μM, 24 h): sufficient to induce hyperacetylation of tubulin
- HDAC6 loss in staurosporin (ST)-treated cells ([7]; with staurosporine): protects ST-treated RKO cells
- tubulin acetylation and degradation [2]: starts the hyperacetylation of tubulin in colon carcinoma cells (RKO and HCT-116 cells) without destroying it
- apoptotic and necrotic sub-G1 populations [9]: significantly increases
- acetylation of tubulin-α [10, 13]: hyperacetylation of tubulin-α
- expression of survivin [10, 13]: reduction of the expression of survivin
- acetylation of histone H3 ([10]; 24 h): Neither MARB1, nor MARB2 cause these alterations
- BCR-ABL expression on the protein level ([10]; BV-173, compound alone, 24 h): do not affect
- BCR-ABL stabilization/degradation in combination with imatinib ([10]; BV-173, with imatinib, 24 h): significantly inhibit the unwanted stabilization of BCR-ABL

Compound: CCCC(CCC)C(=O)O [VPA, reference compound]
- acetylation of histone H3 ([10]; 24 h): induces hyperacetylation of histone H3

Compound: CN1CCc2c(c3ccccc3n2Cc2ccc(C(=O)NO)cc2)C1 [tubastatin A, reference compound]
- concentration with about the same potency in hyperacetylation of tubulin-α [1]: ~5 µM
